From ChEMBL document CHEMBL6115017, “Discovery of DFV890, a Potent Sulfonimidamide-Containing NLRP3 Inflammasome Inhibitor” (J Med Chem, 2025)
Activity calls are given as the source filed them. The rule behind the calls is not given here.

Key:
[1] = biological target: Nucleotide-binding oligomerization domain-containing protein 2 (Homo sapiens) (UniProt Q9HC29); experiment: Inhibition of human NOD2 inflammasome activation expressed in […] cells assessed as inhibition of L18-MDP induced NF-kappaB activation by measuring SEAP activity pretreated for 1 hr followed by induced with L18-MDP measured after 18 hrs by Spectrophotometric analysis; format: cell-based; conditions: HEK, time 19.0 hrs
Nucleotide-binding oligomerization domain-containing protein 2 (Homo sapiens), sequence (Q9HC29 whole entry, the tested form may be a part): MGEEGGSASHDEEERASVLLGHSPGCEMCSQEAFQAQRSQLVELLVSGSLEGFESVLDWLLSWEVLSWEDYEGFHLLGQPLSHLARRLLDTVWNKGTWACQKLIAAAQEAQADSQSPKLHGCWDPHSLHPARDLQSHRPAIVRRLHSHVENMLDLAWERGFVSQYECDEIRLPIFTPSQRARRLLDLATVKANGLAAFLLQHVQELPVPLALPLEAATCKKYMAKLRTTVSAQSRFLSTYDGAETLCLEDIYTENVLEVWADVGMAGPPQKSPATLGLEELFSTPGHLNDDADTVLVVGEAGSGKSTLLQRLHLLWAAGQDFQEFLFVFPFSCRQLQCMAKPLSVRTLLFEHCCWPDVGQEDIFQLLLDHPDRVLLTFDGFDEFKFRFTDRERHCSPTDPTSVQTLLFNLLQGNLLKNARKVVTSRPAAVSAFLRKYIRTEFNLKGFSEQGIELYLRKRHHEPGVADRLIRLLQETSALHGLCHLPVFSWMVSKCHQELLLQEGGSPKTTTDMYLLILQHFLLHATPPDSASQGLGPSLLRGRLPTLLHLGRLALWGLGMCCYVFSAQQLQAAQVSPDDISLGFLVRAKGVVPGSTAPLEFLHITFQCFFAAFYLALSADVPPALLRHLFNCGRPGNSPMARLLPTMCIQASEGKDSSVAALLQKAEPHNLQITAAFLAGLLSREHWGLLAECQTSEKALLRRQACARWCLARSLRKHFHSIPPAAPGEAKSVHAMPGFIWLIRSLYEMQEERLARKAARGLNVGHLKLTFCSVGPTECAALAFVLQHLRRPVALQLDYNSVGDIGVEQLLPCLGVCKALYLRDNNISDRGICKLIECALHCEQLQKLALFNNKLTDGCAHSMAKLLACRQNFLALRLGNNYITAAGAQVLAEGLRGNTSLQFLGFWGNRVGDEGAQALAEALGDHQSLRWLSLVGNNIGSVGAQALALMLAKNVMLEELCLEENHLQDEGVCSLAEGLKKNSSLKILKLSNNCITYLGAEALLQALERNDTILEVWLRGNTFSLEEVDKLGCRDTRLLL

Cytochrome P450 2C9 = Cytochrome P450 2C9 (Homo sapiens, UniProt P11712); experiment: Inhibition of CYP2C9 (unknown origin) by time dependent inhibition assay; format: ADME
Cytochrome P450 2C9, sequence (P11712 whole entry): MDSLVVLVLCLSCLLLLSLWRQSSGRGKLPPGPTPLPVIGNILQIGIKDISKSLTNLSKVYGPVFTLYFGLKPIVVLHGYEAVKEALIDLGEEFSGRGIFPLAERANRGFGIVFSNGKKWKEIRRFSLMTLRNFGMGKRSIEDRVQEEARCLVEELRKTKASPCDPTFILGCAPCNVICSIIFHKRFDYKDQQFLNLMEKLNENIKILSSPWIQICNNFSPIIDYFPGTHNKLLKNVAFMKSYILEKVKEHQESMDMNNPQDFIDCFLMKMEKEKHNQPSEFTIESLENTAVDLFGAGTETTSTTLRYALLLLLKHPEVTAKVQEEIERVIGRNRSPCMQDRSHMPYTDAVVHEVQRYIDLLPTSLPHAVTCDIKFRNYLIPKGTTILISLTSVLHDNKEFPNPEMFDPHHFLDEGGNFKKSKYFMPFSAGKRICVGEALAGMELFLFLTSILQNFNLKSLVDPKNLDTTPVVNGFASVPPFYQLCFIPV

[2] = Half life in C57 BL6 mouse at 10 mg/kg, po and 2 mg/kg, iv by LC-MS analysis; format: ADME, organism-based; conditions: in vivo
[3] = Cmax in Sprague-Dawley rat at 5 mg/kg, po by LC-MS analysis; format: ADME, organism-based; conditions: in vivo
Cytochrome P450 1A2 = biological target: T1, Cytochrome P450 1A2 (Homo sapiens, UniProt P05177); experiment: Inhibition of CYP1A2 (unknown origin) by time dependent inhibition assay; format: ADME
T1 sequence (P05177 whole entry): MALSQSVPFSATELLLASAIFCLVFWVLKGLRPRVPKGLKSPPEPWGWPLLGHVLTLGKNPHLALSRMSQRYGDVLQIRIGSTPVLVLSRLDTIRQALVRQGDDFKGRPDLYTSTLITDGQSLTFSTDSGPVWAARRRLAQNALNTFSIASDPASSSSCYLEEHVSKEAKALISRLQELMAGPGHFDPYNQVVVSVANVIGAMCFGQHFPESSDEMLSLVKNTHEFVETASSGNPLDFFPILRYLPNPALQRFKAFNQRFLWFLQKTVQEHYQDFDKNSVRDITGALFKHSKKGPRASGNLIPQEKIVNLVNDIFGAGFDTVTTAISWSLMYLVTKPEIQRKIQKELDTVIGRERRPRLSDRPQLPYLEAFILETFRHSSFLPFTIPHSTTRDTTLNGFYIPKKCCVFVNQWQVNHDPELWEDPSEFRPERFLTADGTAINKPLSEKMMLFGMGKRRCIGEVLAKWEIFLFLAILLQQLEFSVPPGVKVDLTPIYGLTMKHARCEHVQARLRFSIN

Bile salt export pump = Bile salt export pump (Homo sapiens, UniProt O95342); experiment: Inhibition of BSEP (unknown origin) assessed as reduction in uptake rate of taurocholic acid at 5 uM relative to control; format: toxicity
Bile salt export pump, sequence (O95342 whole entry): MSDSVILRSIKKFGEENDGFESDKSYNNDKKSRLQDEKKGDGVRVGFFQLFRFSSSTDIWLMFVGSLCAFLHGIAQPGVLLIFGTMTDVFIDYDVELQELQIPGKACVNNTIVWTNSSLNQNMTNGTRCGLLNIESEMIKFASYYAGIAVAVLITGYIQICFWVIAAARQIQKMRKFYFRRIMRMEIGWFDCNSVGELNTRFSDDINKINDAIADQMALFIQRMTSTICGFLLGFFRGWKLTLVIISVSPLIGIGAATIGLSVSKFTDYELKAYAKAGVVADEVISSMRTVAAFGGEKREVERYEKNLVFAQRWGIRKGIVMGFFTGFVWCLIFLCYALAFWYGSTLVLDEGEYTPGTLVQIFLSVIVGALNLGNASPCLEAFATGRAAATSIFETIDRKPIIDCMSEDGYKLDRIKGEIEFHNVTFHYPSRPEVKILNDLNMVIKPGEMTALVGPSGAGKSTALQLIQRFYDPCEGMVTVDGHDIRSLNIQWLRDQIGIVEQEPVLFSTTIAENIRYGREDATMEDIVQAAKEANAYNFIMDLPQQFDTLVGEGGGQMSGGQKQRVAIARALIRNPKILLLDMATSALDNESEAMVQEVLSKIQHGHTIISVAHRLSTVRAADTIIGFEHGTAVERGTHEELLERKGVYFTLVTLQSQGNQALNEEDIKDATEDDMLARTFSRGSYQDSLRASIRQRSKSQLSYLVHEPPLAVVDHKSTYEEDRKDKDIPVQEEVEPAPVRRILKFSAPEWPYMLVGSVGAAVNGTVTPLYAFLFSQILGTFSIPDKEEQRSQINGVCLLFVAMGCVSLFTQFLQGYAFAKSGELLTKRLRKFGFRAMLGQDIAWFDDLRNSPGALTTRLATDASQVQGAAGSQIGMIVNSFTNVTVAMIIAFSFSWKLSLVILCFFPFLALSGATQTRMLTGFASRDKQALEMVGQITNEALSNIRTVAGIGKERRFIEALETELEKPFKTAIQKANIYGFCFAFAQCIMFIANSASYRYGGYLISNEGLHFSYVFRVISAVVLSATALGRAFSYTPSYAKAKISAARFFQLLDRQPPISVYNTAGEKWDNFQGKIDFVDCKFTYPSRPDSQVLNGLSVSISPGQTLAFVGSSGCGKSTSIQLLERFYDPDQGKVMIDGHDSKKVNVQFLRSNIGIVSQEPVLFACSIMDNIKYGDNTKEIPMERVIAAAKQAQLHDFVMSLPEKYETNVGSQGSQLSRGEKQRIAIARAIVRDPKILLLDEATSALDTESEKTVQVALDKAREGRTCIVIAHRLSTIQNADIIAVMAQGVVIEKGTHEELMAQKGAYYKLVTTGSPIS

[4] = Cmax in Beagle dog at 2 mg/kg, po by LC-MS analysis; format: ADME, organism-based, Canis lupus familiaris; conditions: in vivo
THP-1 [5] = experiment: Inhibition of mCerulean-tagged ASC pyroptosome formation in PMA-primed human THP-1 cells assessed as speak count pretreated for 1 hr followed by stimulated with gramicidin for 2 hrs by fluorescence imaging analysis; format: cell-based; conditions: dose 0.001-100 µM
Cytochrome P450 3A4 = Cytochrome P450 3A4 (Homo sapiens, UniProt P08684); experiment: Inhibition of CYP3A4 (unknown origin); format: ADME
Cytochrome P450 3A4, sequence (P08684 whole entry): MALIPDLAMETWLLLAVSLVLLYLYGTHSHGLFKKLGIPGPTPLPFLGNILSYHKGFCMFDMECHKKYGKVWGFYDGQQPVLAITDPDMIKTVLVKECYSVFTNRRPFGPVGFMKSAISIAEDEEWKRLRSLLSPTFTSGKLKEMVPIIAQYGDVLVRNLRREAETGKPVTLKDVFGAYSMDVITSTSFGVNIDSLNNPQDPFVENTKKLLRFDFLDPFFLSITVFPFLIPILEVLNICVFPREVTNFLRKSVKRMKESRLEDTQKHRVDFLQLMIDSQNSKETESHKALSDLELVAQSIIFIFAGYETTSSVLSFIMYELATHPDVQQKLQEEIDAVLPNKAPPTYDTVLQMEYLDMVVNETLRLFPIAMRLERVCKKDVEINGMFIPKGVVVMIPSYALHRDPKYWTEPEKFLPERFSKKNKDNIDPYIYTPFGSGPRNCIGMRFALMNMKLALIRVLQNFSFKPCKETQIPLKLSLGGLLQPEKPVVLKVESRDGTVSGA

THP-1 [6] = experiment: Antagonist activity against […] in PMA-primed human THP-1 cells assessed as inhibition of PrgI-induced IL-1beta release measured pretreated for 1 hr followed by induced with LFn-PrgI measured after 2 hr incubation by HTRF analysis; format: cell-based; conditions: time 3.0 hrs
[7] = AUC (infinity) in Cynomolgus monkey at 5 mg/kg, po by LC-MS analysis; format: ADME, organism-based, Macaca fascicularis; conditions: in vivo
Cytochrome P450 2C8 = biological target: T2, Cytochrome P450 2C8 (Homo sapiens, UniProt P10632); experiment: Inhibition of CYP2C8 (unknown origin) by time dependent inhibition assay; format: ADME
T2 sequence (P10632 whole entry): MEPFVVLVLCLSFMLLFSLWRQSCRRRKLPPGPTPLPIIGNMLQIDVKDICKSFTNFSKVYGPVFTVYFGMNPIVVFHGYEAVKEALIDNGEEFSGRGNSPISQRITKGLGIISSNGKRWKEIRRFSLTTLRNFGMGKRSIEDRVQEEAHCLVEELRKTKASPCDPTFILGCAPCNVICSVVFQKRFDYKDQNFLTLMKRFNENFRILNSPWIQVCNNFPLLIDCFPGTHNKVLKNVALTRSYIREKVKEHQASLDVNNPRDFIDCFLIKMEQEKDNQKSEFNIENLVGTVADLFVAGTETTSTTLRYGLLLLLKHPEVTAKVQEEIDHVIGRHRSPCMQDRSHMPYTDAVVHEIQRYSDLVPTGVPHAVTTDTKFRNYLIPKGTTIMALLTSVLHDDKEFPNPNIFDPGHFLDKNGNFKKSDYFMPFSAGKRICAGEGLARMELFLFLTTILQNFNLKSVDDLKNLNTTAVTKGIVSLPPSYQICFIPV

[8] = Apparent permeability of the compound across apical to basolateral side in MDCK; format: ADME, cell-based, Canis lupus familiaris; conditions: dog
[9] = biological target: 5-hydroxytryptamine receptor 2A (Homo sapiens) (UniProt P28223); experiment: Inhibition of 5HT2A (unknown origin); conditions: concentration not given here
5-hydroxytryptamine receptor 2A (Homo sapiens), sequence (P28223 whole entry): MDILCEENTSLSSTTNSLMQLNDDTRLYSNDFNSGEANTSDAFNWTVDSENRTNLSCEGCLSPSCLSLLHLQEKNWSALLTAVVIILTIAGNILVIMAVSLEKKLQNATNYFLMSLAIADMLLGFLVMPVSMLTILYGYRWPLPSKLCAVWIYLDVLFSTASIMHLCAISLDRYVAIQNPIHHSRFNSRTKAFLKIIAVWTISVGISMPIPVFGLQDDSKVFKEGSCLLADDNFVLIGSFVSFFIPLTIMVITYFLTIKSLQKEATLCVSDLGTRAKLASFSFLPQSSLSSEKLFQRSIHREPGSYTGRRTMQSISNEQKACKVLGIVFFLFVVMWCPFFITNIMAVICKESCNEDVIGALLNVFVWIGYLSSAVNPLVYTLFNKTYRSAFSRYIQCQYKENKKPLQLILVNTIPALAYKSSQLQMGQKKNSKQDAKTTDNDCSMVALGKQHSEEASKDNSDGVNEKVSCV

CC(C)(O)c1ncc([S@](N)(=O)=NC(=O)Nc2c3c(cc4c2CCC4)CCC3)s1
Activity [1]: inactive | TDI (Cytochrome P450 2C9): Not_active | half-life [2]: 3.9 h | Cmax [3]: 8860 ng/mL | TDI (Cytochrome P450 1A2): Not_active | Activity (Bile salt export pump): Not_active | Cmax [4]: 6560 ng/mL | inhibition (THP-1 [5]): Dose-dependent-effect | IC50 (Cytochrome P450 3A4): > 60 µM | Activity (THP-1 [6]): inactive | AUC(0-inf) [7]: 331 µg·h/mL | TDI (Cytochrome P450 2C8): Not_active | Papp A→B [8]: 8.2 ×10⁻⁶ cm/s | inhibition [9]: > 50%
